Measured values published in patent publication US20130274342A1, “COMPOSITIONS AND METHODS FOR TREATING COUGH” (Cerecor, Inc., priority 2012, published 2013).

Experiments:
Caco-2 cells = assay: Memantine in vitro intestinal permeability (Caco-2 cells); type: in vitro ADME
[1] = Pharmacokinetic evaluation of memantine with sodium hydroxide, menthol and optionally NH4Cl in male beagle dogs (Example 2); type: in vivo; details: 0.4 mg/kg, Route Oral
Protocol: The pharmacokinetics of memantine were evaluated after buccal administration in male beagle dogs. Memantine was formulated in water, 3.3 mg/mL sodium hydroxide in water, or 7.5 mg/mL sodium carbonate in water. All dogs received a 0.4 mg/kg dose of memantine. Plasma levels of memantine were determined by LC-MS/MS. Pharmacokinetic parameters were determined for the memantine plasma data.
For dosing, dogs were anesthetized with an IV injection of ketamine/diazepam, and maintained by isoflurane intubation during the buccal administration. The dosing solution was pipetted into a circular cylinder to concentrate the dosing solution on one area of the mucosa. At just prior to the 15 minute sample time point, the oral cavity was rinsed with 5 mL of water and dried with gauze. Immediately after the rinse, the 15 minute sample was collected.
The pharmacokinetics of memantine were evaluated after buccal administration in male beagle dogs using procedures similar to those used in Example 1, except that menthol or menthol and ammonium chloride where co-administered with the sodium hydroxide (Table 2). Table 2 provides a summary of pharmacokinetic findings, comparing memantine compositions containing an alkalinizing agent to increase local pH and a permeation enhancer (menthol), and optionally a urinary acidifying agent. […] Further addition of a urinary acidifying agent (e.g., NH4Cl) further reduces T1/2, indicating more rapid elimination of memantine.

[2] = Stability of memantine in alkaline conditions, solution and lozenge (Example 5); type: physicochemical
Protocol: The stability of memantine is studied within a pH range in both solution and in a lozenge dosage form. It is determined that when memantine is included in a buffer solution at a pH 8.0 or higher, memantine degrades and/or precipitates out of solution. It is determined that in a solution with a pH of 8.0, only about 85.3 percent of memantine is recovered; in a solution with a pH of 9.0, only about 29.8 percent of memantine is recovered; and in a solution with a pH of 10.0, only about 0.7 percent of memantine is recovered. In a solution with a pH of 1.0, it is determined that 97.6 percent of memantine is recovered and thus memantine is determined to be stable. It is also determined that memantine is unstable in a lozenge dosage form when it is in contact with an alkalinizing agent. It is determined that when memantine and sodium hydroxide are added together in a lozenge dosage form, only about 40% to about 60% memantine is recovered, with the remaining memantine degrading and/or precipitating out during the lozenge preparation process. It is determined that when memantine and sodium carbonate are added together in a lozenge dosage form, only about 40% to about 60% memantine is recovered, with the remaining memantine degrading and/or precipitating out during the lozenge preparation process.

[3] = Memantine ex vivo buccal permeability (porcine buccal mucosa); type: in vitro ADME
[4] = tested on: citric acid-induced cough; assay: Citric acid-induced cough in guinea pigs, oral memantine vs vehicle; type: in vivo; details: oral administration, dose response (FIG. 2)
[5] = cited from earlier work
[6] = absorption limited to the distal small bowel; cited from earlier work

Row | effect as permeation enhancer on memantine Caco-2 permeability (Caco-2 cells; FIG. 6) | AUC0-∞ ([1]; 3.3 mg/ml sodium hydroxide + 5 mg/ml menthol) | Cmax/Dose ([1]; 3.3 mg/ml sodium hydroxide + 5 mg/ml menthol + 20 mg/kg NH4Cl) | AUC0-t ([1]; Control) | memantine recovered ([2]; solution with a pH of 1.0) | memantine recovered ([2]; solution with a pH of 8.0) | memantine recovered ([2]; solution with a pH of 9.0) | memantine recovered ([2]; solution with a pH of 10.0) | increase in permeability of memantine in porcine buccal mucosa ([3]; increase in pH from 5.5 to 9.0 (FIG. 4)) | increase in permeability of memantine in porcine buccal mucosa ([3]; increase in pH from 8.0 to 9.0 (FIG. 5)) | permeability of memantine in Caco-2 cells (Caco-2 cells; increase in pH from pH 5.0 to 10.5 (FIG. 3)) | Molecule | efficacy on citric acid-induced cough relative to vehicle control [4] | dissociation constant (pKa) [5] | time to maximum plasma concentration (Tmax) [6]
1 | ineffective |  |  |  |  |  |  |  |  |  |  | polysorbate 80 |  |  | 
2 |  | 126 ng·h/mL | 26.03 | 120 ng·h/mL | 97.6% | about 85.3% | about 29.8% | about 0.7% | over 100 fold | about 3.8 fold | gradually increases | CC12CC3CC(C)(C1)CC(N)(C3)C2 [memantine, 3,5-dimethyl-1-adamantanamine] | dose-dependent antitussive effects | ~10 | 4 to 7 h
